# Data: the supplement of paper PMC13380429
# What was measured:
# Settings in all cases: 72 h
# Caco-2 [1] = test: cell viability relative to DMSO; higher = less toxic
# Calu-3 [2] = test: as above
# HepG2 [3] = test: as above
# U2OS [4] = test: as above
# Vero E6 [5] = test: as above
# Caco-2 [6] = test: relative viability EC50 (midpoint between 100% and the lowest measured viability); higher = less toxic
# Calu-3 [7] = test: as above
# HepG2 [8] = test: as above
# U2OS [9] = test: as above
# Caco-2 [10] = test: drug sensitivity score (DSS) for viability; higher = more toxic; extreme values may be limits of the assay
# Calu-3 [11] = test: as above
# HepG2 [12] = test: as above
# U2OS [13] = test: as above
# Vero E6 [14] = test: as above
# Vero E6 [15] = test: relative viability EC50 (midpoint between 100% and the lowest measured viability); higher = less toxic
SMILES,cell viability (Caco-2 [1]; 1 nM) [%],cell viability (Caco-2 [1]; 10 nM) [%],cell viability (Caco-2 [1]; 100 nM) [%],cell viability (Caco-2 [1]; 1000 nM) [%],cell viability (Caco-2 [1]; 10000 nM) [%],cell viability (Calu-3 [2]; 1 nM) [%],cell viability (Calu-3 [2]; 10 nM) [%],cell viability (Calu-3 [2]; 100 nM) [%],cell viability (Calu-3 [2]; 1000 nM) [%],cell viability (Calu-3 [2]; 10000 nM) [%],cell viability (HepG2 [3]; 1 nM) [%],cell viability (HepG2 [3]; 10 nM) [%],cell viability (HepG2 [3]; 100 nM) [%],cell viability (HepG2 [3]; 1000 nM) [%],cell viability (HepG2 [3]; 10000 nM) [%],cell viability (U2OS [4]; 1 nM) [%],cell viability (U2OS [4]; 10 nM) [%],cell viability (U2OS [4]; 100 nM) [%],cell viability (U2OS [4]; 1000 nM) [%],cell viability (U2OS [4]; 10000 nM) [%],cell viability (Vero E6 [5]; 1 nM) [%],cell viability (Vero E6 [5]; 10 nM) [%],cell viability (Vero E6 [5]; 100 nM) [%],cell viability (Vero E6 [5]; 1000 nM) [%],cell viability (Vero E6 [5]; 10000 nM) [%],relative viability EC50 (Caco-2 [6]) [µM],relative viability EC50 (Calu-3 [7]) [µM],relative viability EC50 (HepG2 [8]) [µM],relative viability EC50 (U2OS [9]) [µM],drug sensitivity score (Caco-2 [10]),drug sensitivity score (Calu-3 [11]),drug sensitivity score (HepG2 [12]),drug sensitivity score (U2OS [13]),drug sensitivity score (Vero E6 [14]),relative viability EC50 (Vero E6 [15]) [µM]
C=C1c2cccc(O)c2C(=O)C2=C(O)[C@]3(O)C(=O)C(C(N)=O)=C(O)[C@@H](N(C)C)[C@@H]3[C@@H](O)[C@H]12 [methacycline],98.1,95.7,99.7,93.5,95.4,99.3,89.1,100,83,90.7,104,99.9,97.9,96.9,89.9,101,96.9,104,99.9,103,70.6,105,71.4,97.6,63.2,> 10,> 10,> 10,> 10,0,0.3,0,0,5.8,
O=C(/C=C/c1c(C(=O)O)[nH]c2cc(Cl)cc(Cl)c12)Nc1ccccc1 [gavestinel],102,104,91,99.6,104,90.4,98.8,89.3,99.2,107,94.5,112,92.9,105,101,101,99.2,100,101,100,,,,,,> 10,> 10,> 10,> 10,0,0,0,0,,
Cc1cc(C)c2nc(-c3ccccn3)cc(C(=O)Nc3ccc(S(=O)(=O)Nc4onc(C)c4C)cc3)c2c1 [ML193],95.2,90.1,101,83.7,114,97,93.5,96,86.3,94.9,89.7,108,100,97.2,104,100,98.7,103,98,98.4,,,,,,> 10,> 10,> 10,> 10,0,0,0,0,,
Nc1nc(N)c2nc(-c3ccccc3)c(N)nc2n1 [triamterene],104,120,97.8,106,98.8,103,101,93.6,97.9,102,97.9,83.3,85.9,88.7,88.1,102,101,106,108,97.8,97.9,98.2,101,98.6,70.4,> 10,> 10,> 10,> 10,0,0,5.2,0,1.5,
COc1ccc(-n2c(C)c([N+](=O)[O-])c3ccc(O)cc32)cc1 [ID-8],98.3,111,91,92.2,94.5,99.7,97.6,91.1,79.9,88.4,99.3,102,97.4,106,93.6,,,,,,96.3,103,94.2,94.5,92.1,> 10,> 10,> 10,,0,2.6,0,,0,> 10
C[C@H](NC(=O)[C@@H](O)c1cc(F)cc(F)c1)C(=O)N[C@@H]1C(=O)N(C)c2ccccc2-c2ccccc21,101,89.2,101,86,91.3,98,87.7,97.9,101,100,97.1,95.6,102,101,88.2,96,93.9,94,93,94.7,,,,,,> 10,> 10,> 10,> 10,0,0,0,0,,
Cc1ccc2c(c1)C1(CCN(CCc3nc(-c4ccccc4)oc3C)CC1)OC(=O)N2,97,91.7,93.3,94.4,87.7,94.9,103,98.1,98,85.3,101,96,96.7,95.3,75.4,98.5,96.5,96.3,94,88.8,92.9,101,96.4,94.4,74.1,> 10,> 10,> 10,> 10,0,0.4,1.6,0,1.8,
CO[C@H]1CC[C@H](N2C(=O)CNc3ncc(-c4ccc(C(C)(C)O)nc4)nc32)CC1 [CC-223],102,104,99.4,81.9,42.7,94.6,87.1,106,74.4,41.6,103,95.6,98.9,94.6,42.9,99.1,95.6,102,97.7,56,110,104,99.8,92.5,52.7,1.36,1.11,2.39,,5.8,6.6,4,2.6,3.7,
CCOC(=O)NNc1ccc(N(CC)CC(C)O)nn1 (stereo unspecified) [cadralazine],110,97.4,100,102,102,104,96.3,91.6,88.1,101,95.6,103,97.9,96.6,106,,,,,,105,100,94.8,100,95.2,> 10,> 10,> 10,,0,0,0,,0,> 10
O=C1Nc2ccccc2/C1=C1/Nc2ccccc2C1=O [indirubin],101,100,109,94.8,105,116,104,109,93.1,119,110,110,97.8,94,93.6,,,,,,101,96.4,97.5,97.7,98.1,> 10,> 10,> 10,,0,0,0,,0,> 10
COc1ccc(-c2nc(C(=O)N3CCN(C)CC3)sc2-c2ccc(OC)cc2)cc1,99.2,94.6,108,102,102,97.5,101,99.7,109,106,98.7,95.7,104,107,98.5,,,,,,107,104,102,103,95.6,> 10,> 10,> 10,,0,0,0,,0,> 10
O=C(O)C1CN(Cc2ccc(-c3nc4cc(Cc5ccccc5F)ccc4s3)c(F)c2)C1 [TC-SP-14],97,81.7,84.2,99.1,81.8,91.2,90.5,102,95.1,107,109,121,90.3,119,90,99.4,97.9,98.8,102,101,,,,,,> 10,> 10,> 10,> 10,0,0,0,0,,
CCC(=O)c1ccc(OCC(O)CN2CCN(c3ccccc3)CC2)cc1 (stereo unspecified) [centpropazine],96.8,92.8,94.6,93.1,98.4,,,,,,120,112,106,101,90,100,103,99.3,106,97.3,,,,,,> 10,,> 10,> 10,0,,0,0,,
O=C(C(c1ccccc1)c1ccccc1)N1CCN(CC(O)COc2cccc3ncccc23)CC1 (stereo unspecified) [dofequidar],102,99.9,94.7,103,86.3,90.5,97.8,109,129,104,95.7,104,105,105,102,97.4,102,94.2,102,93.8,,,,,,> 10,> 10,> 10,> 10,0.1,0,0,0,,
Cc1ccc(/C=C2\CNC/C(=C\c3ccc(C)cc3)C2=O)cc1,103,98.6,94,94.1,38.8,92.7,112,105,104,79,119,99.2,110,101,12.4,105,106,101,98,13.4,101,97.9,104,103,50.2,2.36,> 10,3.24,3,4.3,0.5,4.8,5.1,2.4,
C[C@@H]1O[C@@H](O[C@H]2[C@H](Oc3cc(O)c4c(c3)O[C@H](c3ccc(O)cc3)CC4=O)O[C@H](CO)[C@@H](O)[C@@H]2O)[C@H](O)[C@H](O)[C@H]1O [Naringin (Naringoside)],92.3,95.9,97.9,96.3,102,110,96.9,98.8,103,98.8,104,112,90,97.7,98.9,99.6,94.7,101,98.2,108,,,,,,> 10,> 10,> 10,> 10,0,0,0,0,,
COC1=C2C[C@@H](C)C[C@H](OC)[C@H](O)[C@@H](C)/C=C(\C)[C@H](OC(N)=O)[C@@H](OC)/C=C\C=C(/C)C(=O)NC(=CC1=O)C2=O [geldanamycin],106,95.9,95.1,56.9,29.2,99,107,103,68,35.4,101,105,106,1.2,1,100,101,93.6,24.2,3,97.1,102,98,98.1,65.9,0.716,1.01,0.35,0.474,9.2,7.6,17.3,15,1.8,
O=c1ccc2cc3ccoc3cc2o1 [psoralen],96.6,104,101,104,97.9,,,,,,110,107,110,96.5,105,101,104,97.8,102,98.9,,,,,,> 10,,> 10,> 10,0,,0,0,,
c1nc2c(NC3CCCCC3)nc(Nc3ccc(N4CCOCC4)cc3)nc2[nH]1 [reversine],99.3,93.6,97.8,84.1,35.2,102,92.4,103,100,73.4,101,89.9,89.2,46.3,27.6,99.9,102,99.4,63.6,23.1,104,98.1,103,65.1,58,1.57,,0.401,1.04,6,1,11.5,8.9,6.3,
O=C(O)C[CH2][Ge](=[O])[O][Ge](=[O])[CH2]CC(=O)O [propagermanium],108,91.4,106,93.4,100,102,105,95.6,99.2,105,104,106,95.3,96.8,88,101,101,99.1,97.1,97.5,,,,,,> 10,> 10,> 10,> 10,0,0,0,0,,
CCOC(CN1CCN(CC(C)C(=O)c2ccccc2)CC1)c1ccccc1 (stereo unspecified) [eprazinone],102,98.9,110,95.4,98.2,96,96.9,95.6,93,90.8,111,96.7,102,98.9,99.6,98.8,95.8,95.8,95.2,98.7,,,,,,> 10,> 10,> 10,> 10,0,0,0,0,,
COc1cnc(NS(=O)(=O)c2ccc(N)cc2)nc1 [sulfameter],106,103,92.7,103,98.8,97.2,96.4,99.3,101,105,102,110,97,99.6,106,96.2,101,94.3,101,97.2,,,,,,> 10,> 10,> 10,> 10,0,0,0,0,,
O=C1C(O)=C([C@H]2CC[C@H](c3ccc(Cl)cc3)CC2)C(=O)c2ccccc21 [atovaquone],94.6,103,104,102,95.9,102,107,92.2,102,108,99.4,90.2,94.8,98.9,107,96.8,98.3,96.5,96.4,92.8,95.2,101,101,99.2,66.3,> 10,> 10,> 10,> 10,0,0,0,0,1.7,
CCCSc1nc(N[C@@H]2C[C@H]2c2ccc(F)c(F)c2)c2nnn([C@@H]3C[C@H](OCCO)[C@@H](O)[C@H]3O)c2n1 [ticagrelor],98.1,99.5,98,97.1,86.5,99.9,99.6,101,103,104,107,112,95.9,99.1,89.5,104,96.3,101,103,96.3,,,,,,> 10,> 10,> 10,> 10,0.3,0,0,0,,
CC(C)C[C@@H](C(=O)N[C@H](C(=O)OC1CCCC1)c1ccccc1)[C@H](O)C(=O)NO [tosedostat],90,105,93.6,88.6,84.1,96.2,101,74.6,69.7,59.8,105,87.8,88.5,80.1,66.7,97.7,103,96.3,98.3,70.9,99.7,99.1,104,102,106,> 10,,,,1.1,8.9,4.6,1.5,0,> 10
